Assay results reported in patent US20240109918A1, “HETEROCYCLIC COMPOUNDS AND USES THEREOF” (Kumquat Biosciences Inc., priority 2022, published 2024).

What was measured:
[1] = target: T1, KRASG12D (Homo sapiens, UniProt P01116, G12D); test: Bio-Biochem-PPI-HTRF Ras-SOS1 interaction assay (KRAS G12D); format: biochemical; conditions: 5 nM
T1 construct: made in house; host or cells: E. coli BL21 (DE3)
Protocol: (§1) The assay buffer can contain −5 mM HEPES pH 7.4, ˜150 mM NaCl, ˜ 1 mM DTT, 0.05% BSA and 0.0025% (v/v) Igepal. A Ras working solution is prepared in an assay buffer containing typically a suitable amount of the protein construct (e.g., GST-tagged K-Ras mutant) and the FRET donor (e.g., antiGST-Eu(K) from Cisbio, France). A SOS1 working solution is prepared in an assay buffer containing suitable amount of the protein construct (e.g., His-hSOS1) and the FRET acceptor (e.g., anti-6His-XL665 from Cisbio, France). A suitable amount of the protein construct will depend on the range of activity or range of IC50 values being detected or under investigation. For detecting IC50 within a range of 500 nM, the protein constructs of the same range of molarity can be utilized. […] A fixed volume of DMSO with or without test compound is transferred into a 384-well plate. Ras working solution is added to all wells of the test plate. SOS1 working solution is added to all wells except for those that are subsequently filled the inhibitor control solution. Upon incubation for about 10 minutes or longer, the fluorescence is measured with a M1000Pro plate reader (Tecan) using HTRF detection (excitation 337 nm, emission 1:620 nm, emission 2: 665 nm). Compounds are tested in duplicates at different concentrations (for example, 10 μM, 2.5 μM, 0.63 μM, 0.16 μM, 0.04 μM, 0.01 μM test compound). The ratiometric data (i.e., emission 2 divided by emission 1) is used to calculate IC50 values against Ras using GraphPad Prism (GraphPad software). Following this general procedure, samples were tested with or without a subject compound disclosed herein including compounds exemplified in Table 1 to assess their abilities to inhibit a mutant K-Ras relative to another mutant K-Ras or wildtype K-Ras. Signaling output measured in terms of IC50 values can be obtained, a ratio of IC50 against one mutant relative to another mutant can be calculated. For instance, a selective reduction of K-Ras G12D signaling output can be evidenced by a ratio greater than one. In particular, a selective reduction of K-Ras G12D signaling relative to K-Ras WT signaling is evidenced as the ratio of IC50 (against K-Ras WT) to IC50 (against K-Ras G12D) is greater than 1.

[2] = target: T2, KRASwt (Homo sapiens, UniProt P01116); test: Bio-Biochem-PPI-HTRF Ras-SOS1 interaction assay (KRAS wt); format: biochemical; conditions: 5 nM
T2 construct: made in house; host or cells: E. coli BL21 (DE3)
Protocol: as §1

T2 sequence (P01116 1-188 isoform P01116-2): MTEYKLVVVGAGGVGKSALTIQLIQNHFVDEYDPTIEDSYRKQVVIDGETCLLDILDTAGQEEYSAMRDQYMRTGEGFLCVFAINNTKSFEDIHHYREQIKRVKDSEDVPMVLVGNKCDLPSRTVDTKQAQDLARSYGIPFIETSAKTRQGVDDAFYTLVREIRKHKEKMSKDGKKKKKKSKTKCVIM
T1 sequence (P01116 1-188 isoform P01116-2 G12D): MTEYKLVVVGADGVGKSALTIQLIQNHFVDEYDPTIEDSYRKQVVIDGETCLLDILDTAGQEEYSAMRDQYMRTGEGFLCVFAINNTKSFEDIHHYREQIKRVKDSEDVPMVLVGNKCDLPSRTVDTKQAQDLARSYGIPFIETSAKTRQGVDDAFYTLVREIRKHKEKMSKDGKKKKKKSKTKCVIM

Structure (SMILES) | IC50 [1] | IC50 [2]
N#Cc1c(N)sc2c(F)ccc(-c3c(Cl)cc4c(N5CCCCC6(CN(C(=O)C(C7CC7)N7CCOCC7)C6)C5)nc(OC[C@@]56CCCN5C[C@H](F)C6)nc4c3F)c12 (stereo partly drawn) [compound 223, 2-amino-4-(6-chloro-4-(2-(2-cyclopropyl-2-morpholinoacetyl)-2,6-diazaspiro[3.6]decan-6-yl)-8-fluoro-2-(((2R,7aS)-2-fluorotetrahydro-1H-pyrrolizin-7a(5H)-yl)methoxy)quinazolin-7-yl)-7-fluorobenzo[b]thiophene-3-carbonitrile] | < 5 µM | < 5 µM
N#Cc1c(N)sc2c(F)ccc(-c3c(Cl)cc4c(N5CCOCC6(CN(C(=O)[C@@H]7CC7(F)F)C6)C5)nc(OC[C@@]56CCCN5C[C@H](F)C6)nc4c3F)c12 [compound 239, 2-amino-4-(6-chloro-4-(2-((S)-2,2-difluorocyclopropane-1-carbonyl)-6-oxa-2,9-diazaspiro[3.6]decan-9-yl)-8-fluoro-2-(((2R,7aS)-2-fluorotetrahydro-1H-pyrrolizin-7a(5H)-yl)methoxy)quinazolin-7-yl)-7-fluorobenzo[b]thiophene-3-carbonitrile] | < 5 µM | < 5 µM
CC(=O)N1CC2(CCN(c3nc(OC[C@@]45CCCN4C[C@H](F)C5)nc4c(F)c(-c5ccc(F)c6sc(N)nc56)c(Cl)cc34)CC2)C1 [compound 165, 1-(7-(7-(2-amino-7-fluorobenzo[d]thiazol-4-yl)-6-chloro-8-fluoro-2-(((2R,7aS)-2-fluorotetrahydro-1H-pyrrolizin-7a(5H)-yl)methoxy)quinazolin-4-yl)-2,7-diazaspiro[3.5]nonan-2-yl)ethan-1-one] | < 5 µM | < 5 µM
C#Cc1c(F)ccc2cc(O)cc(-c3ccc4c(N5CCCC6(CNC6)C5)nc(OC[C@@]56CCCN5C[C@H](F)C6)nc4c3F)c12 [compound 161, 5-ethynyl-6-fluoro-4-(8-fluoro-2-(((2R,7aS)-2-fluorotetrahydro-1H-pyrrolizin-7a(5H)-yl)methoxy)-4-(2,6-diazaspiro[3.5]nonan-6-yl)quinazolin-7-yl)naphthalen-2-ol] | < 5 µM | < 5 µM
N#Cc1c(N)sc2c(F)ccc(-c3c(Cl)cc4c(N5CCCCC6(CN(C(=O)[C@H]7CC7(F)F)C6)C5)nc(OC[C@@]56CCCN5C[C@H](F)C6)nc4c3F)c12 (single isomer, unassigned) [compound 118] | < 5 µM | < 5 µM
CN(C)C/C=C/C(=O)N1CC2(C1)CN(c1nc(OC[C@@]34CCCN3C[C@H](F)C4)nc3c(F)c(-c4ccc(F)c5sc(N)c(C#N)c45)c(Cl)cc13)CCO2 [compound 185, 2-amino-4-(6-chloro-4-(2-((E)-4-(dimethylamino)but-2-enoyl)-5-oxa-2,8-diazaspiro[3.5]nonan-8-yl)-8-fluoro-2-(((2R,7aS)-2-fluorotetrahydro-1H-pyrrolizin-7a(5H)-yl)methoxy)quinazolin-7-yl)-7-fluorobenzo[b]thiophene-3-carbonitrile] | < 5 µM | < 5 µM
N#Cc1c(N)sc2c(F)ccc(-c3c(Cl)cc4c(N5CCC(O)CC6(CN(C(=O)C(F)F)C6)C5)nc(OC[C@@]56CCCN5C[C@H](F)C6)nc4c3F)c12 (stereo partly drawn) [compound 241, 2-amino-4-(6-chloro-4-(2-(2,2-difluoroacetyl)-9-hydroxy-2,6-diazaspiro [3.6]decan-6-yl)-8-fluoro-2-(((2R,7aS)-2-fluorotetrahydro-1H-pyrrolizin-7a(5H)-yl)methoxy)quinazolin-7-yl)-7-fluorobenzo[b]thiophene-3-carbonitrile] | < 5 µM | < 5 µM
N#Cc1c(N)sc2c(F)ccc(-c3c(Cl)cc4c(N5CCC6(CN(C#N)C6)C5)nc(OC[C@@]56CCCN5C[C@H](F)C6)nc4c3F)c12 [compound 182, 6-(7-(2-amino-3-cyano-7-fluorobenzo[b]thiophen-4-yl)-6-chloro-8-fluoro-2-(((2R,7aS)-2-fluorotetrahydro-1H-pyrrolizin-7a(5H)-yl)methoxy)quinazolin-4-yl)-2,6-diazaspiro[3.4] octane-2-carbonitrile] | < 5 µM | < 5 µM
N#Cc1c(N)sc2c(F)ccc(-c3c(Cl)cc4c(N5CCC(CO)CC6(CNC6)C5)nc(OC[C@@]56CCCN5C[C@H](F)C6)nc4c3F)c12 (stereo partly drawn) [compound 214, 2-amino-4-(6-chloro-8-fluoro-2-(((2R,7aS)-2-fluorotetrahydro-1H-pyrrolizin-7a(5H)-yl)methoxy)-4-(9-(hydroxymethyl)-2,6-diazaspiro[3.6]decan-6-yl)quinazolin-7-yl)-7-fluorobenzo[b]thiophene-3-carbonitrile] | < 5 µM | < 5 µM

Now from value to compound:

IC50 [1] | IC50 [2] | Structure (SMILES)
< 5 µM | < 5 µM | Cc1c(N)sc2c(F)ccc(-c3c(Cl)cc4c(N5CCOC6(CN(C(=O)/C(C#N)=C/c7ccoc7)C6)C5)nc(OC[C@@]56CCCN5C[C@H](F)C6)nc4c3F)c12 [compound 348, (E)-2-(8-(7-(2-amino-7-fluoro-3-methylbenzo[b]thiophen-4-yl)-6-chloro-8-fluoro-2-(((2R,7aS)-2-fluorotetrahydro-1H-pyrrolizin-7a(5H)-yl)methoxy)quinazolin-4-yl)-5-oxa-2,8-diazaspiro [3.5]nonane-2-carbonyl)-3-(furan-3-yl) acrylonitrile]
< 5 µM | < 5 µM | N#Cc1c(N)sc2c(F)ccc(-c3c(Cl)cc4c(N5CCCCC6(CN(C(=O)CC7CC(F)(F)C7)C6)C5)nc(OC[C@@]56CCCN5C[C@H](F)C6)nc4c3F)c12 [compound 347, 2-amino-4-(6-chloro-4-(2-(2-(3,3-difluorocyclobutyl)acetyl)-2,6-diazaspiro[3.6]decan-6-yl)-8-fluoro-2-(((2R,7aS)-2-fluorotetrahydro-1H-pyrrolizin-7a(5H)-yl)methoxy)quinazolin-7-yl)-7-fluorobenzo[b]thiophene-3-carbonitrile]
< 5 µM | < 5 µM | N#Cc1c(N)sc2c(F)ccc(-c3c(Cl)cc4c(N5CCCCC6(CN(C(=O)C(F)F)C6)C5)nc(OC[C@@]56CCCN5C[C@H](F)C6)nc4c3F)c12 [compound 317, 2-amino-4-(6-chloro-4-(2-(2,2-difluoroacetyl)-2,6-diazaspiro[3.6]decan-6-yl)-8-fluoro-2-(((2R,7aS)-2-fluorotetrahydro-1H-pyrrolizin-7a(5H)-yl)methoxy)quinazolin-7-yl)-7-fluorobenzo[b]thiophene-3-carbonitrile]
< 5 µM | < 5 µM | N#Cc1c(N)sc2c(F)ccc(-c3c(F)c4nc(OC[C@@]56CCCN5C[C@H](F)C6)nc(N5CCCCC6(CN(C(=O)C7CC7(F)F)C6)C5)c4c(=O)n3C3CC3)c12 (stereo partly drawn) [compound 246, 2-amino-4-(6-cyclopropyl-4-(2-(2,2-difluorocyclopropane-1-carbonyl)-2,6-diazaspiro[3.6]decan-6-yl)-8-fluoro-2-(((2R,7aS)-2-fluorotetrahydro-1H-pyrrolizin-7a(5H)-yl)methoxy)-5-oxo-5,6-dihydropyrido[4,3-d]pyrimidin-7-yl)-7-fluorobenzo[b]thiophene-3-carbonitrile]
< 5 µM | < 5 µM | N#Cc1c(N)sc2c(F)ccc(-c3c(Cl)cc4c(N5CCCC6(CN(C(=O)N7CC(C#N)C7)C6)C5)nc(OC[C@@]56CCCN5C[C@H](F)C6)nc4c3F)c12 [compound 308, 1-(6-(7-(2-amino-3-cyano-7-fluorobenzo[b]thiophen-4-yl)-6-chloro-8-fluoro-2-(((2R,7aS)-2-fluorotetrahydro-1H-pyrrolizin-7a(5H)-yl)methoxy)quinazolin-4-yl)-2,6-diazaspiro[3.5]nonane-2-carbonyl)azetidine-3-carbonitrile]
< 5 µM | < 5 µM | N#Cc1c(N)sc2c(F)ccc(-c3c(Cl)cc4c(N5CC(O)CCC6(CN(C(=O)[C@@H]7CC7(F)F)C6)C5)nc(OC[C@@]56CCCN5C[C@H](F)C6)nc4c3F)c12 (stereo partly drawn) [compound 275, 2-amino-4-(6-chloro-4-(2-((S)-2,2-difluorocyclopropane-1-carbonyl)-8-hydroxy-2,6-diazaspiro[3.6]decan-6-yl)-8-fluoro-2-(((2R,7aS)-2-fluorotetrahydro-1H-pyrrolizin-7a(5H)-yl)methoxy)quinazolin-7-yl)-7-fluorobenzo[b]thiophene-3-carbonitrile]
